According to ChEMBL document CHEMBL4613224, “Synthesis, in-vitro antiprotozoal activity and molecular docking study of isothiocyanate derivatives” (Bioorg Med Chem, 2020):
Active and inactive are the calls of the source. The rule behind the calls is not given here.

Tests used:
[1] = system: Trypanosoma brucei rhodesiense; assay: Antitrypanosomal activity against bloodstream Trypanosoma brucei rhodesiense STIB900 assessed as parasite growth inhibition measured after 70 hrs by Alamar blue assay; type: functional, organism-based; conditions: STIB900, 70 h
[2] = system: Trypanosoma cruzi; assay: Antitrypanosomal activity against Trypanosoma cruzi Tulahuen C4 trypomastigotes infected in rat L6 cells assessed as parasite growth inhibition at 2 ug/ml measured after 96 hrs by inverted microscopy analysis relative to control; type: functional; conditions: for inhibition at 2 µg/mL: Tulahuen C4, L6, 96 h
[3] = system: Leishmania donovani; assay: Antileishmanial activity against Leishmania donovani MHOM-ET-67/L82 axenic amastigotes assessed as parasite growth inhibition measured after 72 hrs by Alamar blue based inverted microscopy analysis; type: functional, organism-based; conditions: MHOM-ET-67/L82, 72 h
[4] = system: L6; assay: Cytotoxicity against rat L6 cells assessed as reduction in cell viability measured after 72 hrs by Alamar blue based inverted microscopy analysis; conditions: L6, 72 h
[5] = system: Plasmodium falciparum; assay: Antiplasmodial activity against Plasmodium falciparum NF54 measured after 24 hrs in presence of [3H] hypoxanthine by liquid scintillation counter analysis; type: functional, organism-based
[6] = (§1) Selectivity index, ratio of IC50 for rat L6 cells assessed as reduction in cell viability measured after 72 hrs by Alamar blue based inverted microscopy analysis to IC50 for bloodstream Trypanosoma brucei rhodesiense STIB900 assessed as parasite growth inhibition measured after 70 hrs by Alamar blue assay; type: toxicity; conditions: read-out: Ratio IC50
[7] = as §1, with “Leishmania donovani MHOM-ET-67/L82 axenic amastigotes” for “bloodstream Trypanosoma brucei rhodesiense STIB900”, “72” for “70”, “based inverted microscopy analysis” for “assay”; type: toxicity; conditions: for selectivity ratio at 72 h: L6 cells, read-out: Ratio IC50
[8] = Selectivity index, ratio of IC50 for rat L6 cells assessed as reduction in cell viability measured after 72 hrs by Alamar blue based inverted microscopy analysis to IC50 for Plasmodium falciparum NF54 measured after 24 hrs in presence of [3H] hypoxanthine by liquid scintillation counter analysis; type: toxicity; conditions: read-out: Ratio IC50
[9] = system: Trypanosoma brucei rhodesiense; assay: Antitrypanosomal activity against bloodstream Trypanosoma brucei rhodesiense STIB900 assessed as parasite growth inhibition at 2 ug/ml measured after 70 hrs by Alamar blue assay relative to control; type: functional; conditions: for inhibition at 2 µg/mL: STIB900, 70 h
[10] = system: Leishmania donovani; assay: Antileishmanial activity against Leishmania donovani MHOM-ET-67/L82 axenic amastigotes assessed as parasite growth inhibition at 2 to 10 ug/ml measured after 72 hrs by Alamar blue based inverted microscopy analysis relative to control; type: functional
[11] = system: Trypanosoma cruzi; assay: Antitrypanosomal activity against Trypanosoma cruzi Tulahuen C4 trypomastigotes infected in rat L6 cells assessed as parasite growth inhibition measured after 96 hrs by inverted microscopy analysis; type: functional, organism-based; conditions: Tulahuen C4, L6, 96 h
[12] = Selectivity index, ratio of IC50 for rat L6 cells assessed as reduction in cell viability measured after 72 hrs by Alamar blue based inverted microscopy analysis to IC50 for Trypanosoma cruzi Tulahuen C4 trypomastigotes infected in rat L6 cells assessed as parasite growth inhibition measured after 96 hrs by inverted microscopy analysis; type: toxicity; conditions: read-out: Ratio IC50
[13] = system: Trypanosoma brucei brucei; assay: Antitrypanosomal activity against Trypanosoma brucei brucei assessed as parasite growth inhibition; type: functional, organism-based

Row | Structure (SMILES) | IC50 [1] [µM] | inhibition [2] | IC50 [3] [µM] | IC50 ([4]; read-out: IC50) [µM] | IC50 [5] [µM] | selectivity ratio at 72 h [6] | selectivity ratio at 72 h [7] | selectivity ratio at 72 h [8] | inhibition at 2 µg/mL [9] [%] | inhibition (INH) [10] [%] | also measured
1 | CC(C)c1ccc2c(c1)CC[C@H]1[C@](C)(CN=C=S)CCC[C@]21C | 5.7 | inactive | 4.2 | 10 | 1.1 | 1.8 | 2.4 | 9.4 | > 50 | >90 | –
2 | C[C@@H](CCCN=C=S)[C@H]1CC[C@H]2[C@@H]3[C@@H](O)C[C@@H]4C[C@H](O)CC[C@]4(C)[C@H]3CC[C@]12C | 1.6 | inactive | – | 4.3 | – | 2.7 | – | – | > 50 | >90 | –
3 | O=C(Cn1ccnc1[N+](=O)[O-])NCc1ccccc1 [BENZNIDAZOLE] | – | – | – | > 380 | – | – | 196 | – | – | – | IC50 [11]: 2.41 µM; selectivity ratio at 72 h [12]: > 158
4 | CNCCc1c([C@H]2[C@H]3[C@H](C=C(C)CC3(C)C)c3c(CCNC)c4ccccc4n32)[nH]c2ccccc12 | – | – | – | – | – | – | – | – | – | – | IC50 [13]: 2.8 µM
5 | COc1ccc2c(c1OC)CO[C@@H]2[C@H]1c2c(cc3c(c2OC)OCO3)CCN1C(CN=C=S)c1ccc2c(c1)Cc1ccccc1-2 (some centres undefined) | 6.5 | inactive | 1.3 | 3.9 | 2.6 | 0.6 | 3.1 | 1.5 | > 50 | >90 | –
6 | COc1ccc(N=C=S)cc1OC | – | inactive | – | – | – | – | – | – | 50 | – | inhibition [10]: inactive
7 | COc1ccc2c(c1OC)CO[C@@H]2[C@H]1c2c(cc3c(c2OC)OCO3)CCN1[C@@H](CN)c1cccnc1 | 3.9 | – | – | 14.4 | – | 3.7 | – | – | > 50 | – | –
8 | S=C=NCCc1c[nH]c2ccccc12 | 4 | inactive | 1.7 | 7.1 | 10.3 | 1.8 | 4.2 | 0.7 | > 50 | >90 | –
9 | COc1ccc2c(c1OC)CO[C@@H]2[C@H]1c2c(cc3c(c2OC)OCO3)CCN1[C@@H](CN)c1ccc(F)cc1 | 1.3 | – | – | 38.8 | 2.7 | 29.3 | – | 14.5 | > 50 | – | IC50 [11]: 10.6 µM; inhibition at 2 µg/mL [2]: 53%; selectivity ratio at 72 h [12]: 3.7
10 | Cc1ccc(N=C=S)cc1 | 37.1 | inactive | – | 325 | – | 8.8 | – | – | > 50 | – | inhibition [10]: inactive
11 | C[C@@H](CCCN=C=S)[C@H]1CC[C@H]2[C@@H]3CC[C@@H]4C[C@H](O)CC[C@]4(C)[C@H]3CC[C@]12C | 9.7 | inactive | 5.4 | 4.5 | 4.1 | 0.5 | 0.8 | 1.1 | > 50 | >90 | –
12 | COc1ccc2c(c1OC)CO[C@@H]2[C@H]1c2c(cc3c(c2OC)OCO3)CCN1C(CN)c1ccc2c(c1)Cc1ccccc1-2 (some centres undefined) | 3.5 | – | – | 19.6 | 1.8 | 5.6 | – | 11.2 | > 50 | – | –
13 | C[C@@H](CCC(N)=O)[C@H]1CC[C@H]2[C@@H]3[C@H](O)C[C@@H]4C[C@H](O)CC[C@]4(C)[C@H]3C[C@H](O)[C@]12C | – | – | – | – | – | – | – | – | – | – | inhibition [9]: inactive
14 | COc1ccc2c(c1OC)CO[C@@H]2[C@H]1c2c(cc3c(c2OC)OCO3)CCN1C(CN=C=S)c1cccnc1 (some centres undefined) | 2.7 | – | 0.9 | 7.1 | 2.5 | 2.6 | 8 | 2.9 | > 50 | >90 | IC50 [11]: 1.9 µM; inhibition at 2 µg/mL [2]: 100%; selectivity ratio at 72 h [12]: 3.8
15 | COc1ccc2c(c1OC)CO[C@@H]2[C@H]1c2c(cc3c(c2OC)OCO3)CCN1[C@@H](CN=C=S)c1ccc(F)cc1 | 1.7 | inactive | 0.8 | 13.6 | 2.1 | 8 | 17.5 | 6.5 | > 50 | >90 | –
16 | COc1ccc2c(c1OC)CO[C@@H]2[C@H]1c2c(cc3c(c2OC)OCO3)CCN1C(CN=C=S)c1ccc(C)cc1 (some centres undefined) | 3.1 | inactive | 0.8 | 1.5 | 1.1 | 0.5 | 1.7 | 1.4 | > 50 | >90 | –

Row | Structure (SMILES) | IC50 [1] [µM] | inhibition [2] | IC50 [3] [µM] | IC50 ([4]; read-out: IC50) [µM] | IC50 [5] [µM] | selectivity ratio at 72 h [6] | selectivity ratio at 72 h [7] | selectivity ratio at 72 h [8] | inhibition at 2 µg/mL [9] [%] | inhibition (INH) [10] [%] | also measured
17 | S=C=NCc1ccccc1 [BENZYL ISOTHIOCYANATE] | – | inactive | – | – | – | – | – | – | > 50 | – | inhibition [10]: inactive
18 | COc1ccc2c(c1OC)CO[C@@H]2[C@H]1c2c(cc3c(c2OC)OCO3)CCN1C(CN)c1ccccc1 (some centres undefined) | 1.4 | – | – | 12.1 | 2 | 8.8 | – | 6 | > 50 | – | –
19 | COC(=O)[C@H](Cc1c[nH]c2ccccc12)N=C=S | 22.5 | inactive | 7.1 | 78.1 | 10.2 | 3.5 | 10.9 | 7.7 | > 50 | >90 | Ratio IC50 ([7]; 72 h): 14.4
20 | CCc1ccccc1N=C=S | – | inactive | – | – | – | – | – | – | > 50 | – | inhibition [10]: inactive
21 | C[C@@H](CCCN=C=S)[C@H]1CC[C@H]2[C@@H]3[C@H](O)C[C@@H]4C[C@H](O)CC[C@]4(C)[C@H]3CC[C@]12C | 4.5 | inactive | 1.5 | 5.4 | 4.9 | 1.2 | 3.6 | 1.1 | > 50 | >90 | –
22 | Nc1nc(N)nc(Nc2ccc([As]3SCC(CO)S3)cc2)n1 (centres undefined) [MELARSOPROL] | – | – | – | 24.2 | – | 3230 | – | – | – | – | –
23 | C[C@@H](CCC(N)=O)[C@H]1CC[C@H]2[C@@H]3CC[C@@H]4C[C@H](O)CC[C@]4(C)[C@H]3CC[C@]12C | – | – | – | – | – | – | – | – | – | – | inhibition [9]: inactive
24 | COc1cc([C@@H]2c3cc4c(cc3[C@H](O)[C@H]3COC(=O)[C@H]23)OCO4)cc(OC)c1OC [PODOFILOX] | – | – | – | – | – | – | – | – | – | – | IC50 [4]: 0.012 µM
25 | Fc1ccc(N=C=S)cc1 | 46.6 | inactive | – | 287 | – | 6.2 | – | – | > 50 | – | inhibition [10]: inactive
26 | C[C@@H](CCC(N)=O)[C@H]1CC[C@H]2[C@@H]3CC[C@@H]4C[C@H](O)CC[C@]4(C)[C@H]3C[C@H](O)[C@]12C | – | – | – | – | – | – | – | – | – | – | inhibition [9]: inactive
27 | CC(C)=C[C@H]1C[C@H](/C=C/c2[nH]c3ccccc3c2CCN(C)C)n2c1c(CCN(C)C)c1ccccc12 | – | – | – | – | – | – | – | – | – | – | IC50 [13]: 6.2 µM
28 | COc1ccc2c(c1OC)CO[C@@H]2[C@H]1c2c(cc3c(c2OC)OCO3)CCN1C(CN=C=S)c1ccccc1 (some centres undefined) | 2.3 | inactive | 1 | 18.7 | 3.7 | 8.2 | 18.4 | 5.07 | > 50 | >90 | –
29 | C[C@@H](CCCN=C=S)[C@H]1CC[C@H]2[C@@H]3[C@H](O)C[C@@H]4C[C@H](O)CC[C@]4(C)[C@H]3C[C@H](O)[C@]12C | 1.3 | inactive | 0.5 | 3.9 | 5.2 | 2.9 | 7.8 | 0.7 | > 50 | >90 | –
30 | COC(=O)[C@H](Cc1ccccc1)N=C=S | – | inactive | 1 | 13.9 | – | – | 14.4 | – | > 50 | >90 | –
31 | COc1ccc2c(c1OC)CO[C@@H]2[C@H]1c2c(cc3c(c2OC)OCO3)CCN1C(CN)c1ccc(C)cc1 (some centres undefined) | 1 | – | – | 23.3 | 1.8 | 24.4 | – | 12.8 | > 50 | – | –
